pEC50, pIC50: −log10 of the molar value.

Test [1] concerns the target T1, ERα (Homo sapiens, UniProt P03372).
T1 construct: expressed in transfected cells; host or cells: HAECT-1 cells infected with Ad5-wt-ER adenovirus
T1 sequence (P03372 1-595): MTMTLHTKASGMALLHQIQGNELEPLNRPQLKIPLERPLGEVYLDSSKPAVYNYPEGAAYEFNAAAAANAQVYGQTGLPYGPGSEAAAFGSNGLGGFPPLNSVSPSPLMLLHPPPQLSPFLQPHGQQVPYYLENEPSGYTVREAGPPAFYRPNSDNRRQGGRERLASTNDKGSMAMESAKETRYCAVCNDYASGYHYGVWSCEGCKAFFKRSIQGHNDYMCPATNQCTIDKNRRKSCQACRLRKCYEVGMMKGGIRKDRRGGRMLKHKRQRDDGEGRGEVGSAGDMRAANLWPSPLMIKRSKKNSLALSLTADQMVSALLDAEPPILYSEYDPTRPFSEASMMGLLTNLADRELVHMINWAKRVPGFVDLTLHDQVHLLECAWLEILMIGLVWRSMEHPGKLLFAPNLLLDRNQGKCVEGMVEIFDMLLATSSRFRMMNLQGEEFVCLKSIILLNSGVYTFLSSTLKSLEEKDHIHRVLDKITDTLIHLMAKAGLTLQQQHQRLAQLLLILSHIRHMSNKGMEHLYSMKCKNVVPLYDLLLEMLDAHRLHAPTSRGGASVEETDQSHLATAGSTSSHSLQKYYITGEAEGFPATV
The test can be described thus: IL-6 assay: inhibition of IL-1β induced IL-6 expression in ERα infected HAECT-1 cells. The test is classed as cell-based. To be noted: for pIC50: Ad5-wt-ER infected HAECT-1 cells, IL-1β stimulated, IL-6 by ELISA; for ER/IL-6 % E2: efficacy relative to the maximal inhibition observed with E2. Here is the method: (§1) ERα infected HAECT-1 cells or control cells were thawed, diluted 42× in warm EBM-BSA, plated into 96-well plates at 0.1 ml/well and incubated for 4 h at 34° C. Test compounds were added to the cells as 2× stocks in EBM-BSA containing 2 ng/ml IL-1β (R&D Systems) and plates were returned to the incubator (34° C.). After 15-20 h, 100 μl aliquots of media were removed from the cells and assayed for IL-6 content using a BioSource human IL-6 ELISA Kit. Cells were subsequently washed with 300 μl of Dulbecco's phosphate buffered saline and lysed in 50 μl of Cell Culture Lysis Reagent (Promega). Creatine kinase was determined from the rate of increase in A340 following addition of 100 μl of CK assay reagent (Sigma, cat. No 47-10) to the remainder of the cell lysate.
(§2) For IC50 and EC50 calculations, mean IL-6 or CK values versus log10 of the compound concentration were fitted to a four parameter logistic equation. The IC50/EC50 value, ‘Hill slope’, upper and lower limits of the curve were iteratively estimated.
Background: An ELISA detects its analyte on a solid surface through an enzyme-linked reagent.

The target in test [2] is T1, ERα. The test can be described thus: Creatine kinase (CK) assay in ERα infected HAECT-1 cells. The test is classed as cell-based. To be noted: for pEC50: Ad5-wt-ER infected HAECT-1 cells, creatine kinase in cell lysate; for ER/CK % E2: efficacy relative to the maximal stimulation observed with E2. The procedure:
as §1, §2

As to `CC[C@@H]1C(=O)N(CC(F)(F)F)c2ccc(F)cc2N1C(=O)c1ccc(O)cc1` [Example 16, (3R)-3-Ethyl-6-fluoro-4-(4-hydroxybenzoyl)-1-(2,2,2-trifluoroethyl)-3,4-dihydroquinoxalin-2(1H)-one], in test [1], the pIC50 – broadly, the IC50 on a negative log10 scale, so that one unit is a factor of ten – was 6.69 and the “ER/IL-6 % E2” value came to 83 % E2.
On to `CC[C@@H]1C(=O)N(CC)c2cc(F)ccc2N1C(=O)c1ccc(O)cc1` [Example 3, (3R)-1,3-Diethyl-7-fluoro-4-(4-hydroxybenzoyl)-3,4-dihydroquinoxalin-2(1H)-one], for which, in test [2], the pEC50 (usually −log10 of the EC50, conventionally taken in molar units) is 6.99 and the “ER/CK % E2” value was determined as 29 % E2. Further, in test [1], the pIC50 is 7.14 and the “ER/IL-6 % E2” value is on record as 104 % E2.
For `CC[C@@H]1C(=O)N(C)c2cc(F)ccc2N1C(=O)c1cccc(O)c1` [Example 4, (3R)-3-Ethyl-7-fluoro-4-(3-hydroxybenzoyl)-1-methyl-3,4-dihydroquinoxalin-2(1H)-one], in that order: 6.90, 19 % E2, 6.28 and 57 % E2.
On to `CCCCCN1C(=O)[C@@H](CC)N(C(=O)c2ccc(O)cc2)c2cc(F)ccc21` [Example 13, (3R)-3-Ethyl-6-fluoro-4-(4-hydroxybenzoyl)-1-pentyl-3,4-dihydroquinoxalin-2(1H)-one], for which, in test [1], the pIC50 was 7.05 and the “ER/IL-6 % E2” value amounted to 102 % E2.
For `CCN1C(=O)[C@H](C)N(S(=O)(=O)c2ccc(O)cc2)c2cc(F)ccc21` [Example 21, (3S)-1-Ethyl-6-fluoro-4-[(4-hydroxyphenyl)sulfonyl]-3-methyl-3,4-dihydroquinoxalin-2(1H)-one], in that order: 6.74 and 56 % E2.
For `CC[C@H]1C(=O)N(CC)c2ccc(F)cc2N1C(=O)c1ccc(O)cc1` [Example 6, (3S)-1,3-Diethyl-6-fluoro-4-(4-hydroxybenzoyl)-3,4-dihydroquinoxalin-2(1H)-one], in that order: 6.55 and 44 % E2.
For `CC[C@H]1C(=O)N(CC)c2ccc(Br)cc2N1S(=O)(=O)c1ccc(O)cc1` [Example 33, (3S)-6-bromo-1,3-diethyl-4-[(4-hydroxyphenyl)sulfonyl]-3,4-dihydroquinoxalin-2(1H)-one], in that order: 6.38 and 92 % E2.
In the case of `CC[C@H]1C(=O)N(C)c2ccc(C)cc2N1S(=O)(=O)c1ccc(O)cc1` [Example 28, (3S)-3-Ethyl-4-[(4-hydroxyphenyl)sulfonyl]-1,6-dimethyl-3,4-dihydroquinoxalin-2(1H)-one], in test [1], the pIC50 was 6.53 and the “ER/IL-6 % E2” value was determined as 92 % E2.
In the case of `CCCN1C(=O)[C@@H](CC)N(C(=O)c2ccc(O)cc2)c2cc(F)ccc21` [Example 9, (3R)-3-Ethyl-6-fluoro-4-(4-hydroxybenzoyl)-1-propyl-3,4-dihydroquinoxalin-2(1H)-one], in test [1], the pIC50 is 6.65 and the “ER/IL-6 % E2” value is listed as 96 % E2.
For `CC[C@@H]1C(=O)N(CC)c2ccc(F)cc2N1C(=O)c1ccc(O)cc1` [Example 8, (3R)-1,3-Diethyl-6-fluoro-4-(4-hydroxybenzoyl)-3,4-dihydroquinoxalin-2(1H)-one], in that order: 6.86 and 99 % E2.
`CC[C@@H]1C(=O)N(C)c2ccc(F)cc2N1C(=O)c1ccc(O)cc1` [Example 15, (3R)-3-Ethyl-6-fluoro-4-(4-hydroxybenzoyl)-1-methyl-3,4-dihydroquinoxalin-2(1H)-one]: in test [1], the pIC50 was 6.99 and the “ER/IL-6 % E2” value is reported as 84 % E2.
For `CCCN1C(=O)[C@H](CC)N(S(=O)(=O)c2ccc(O)cc2)c2cc(F)ccc21` [Example 20, (3S)-3-Ethyl-6-fluoro-4-[(4-hydroxyphenyl)sulfonyl]-1-propyl-3,4-dihydroquinoxalin-2(1H)-one], in that order: 6.80 and 79 % E2.
Consider `CC[C@@H]1C(=O)N(C(C)C)c2ccc(F)cc2N1C(=O)c1ccc(O)cc1` [Example 11, (3R)-3-Ethyl-6-fluoro-4-(4-hydroxybenzoyl)-1-isopropyl-3,4-dihydroquinoxalin-2(1H)-one], for which, in test [1], the pIC50 was 6.98 and the “ER/IL-6 % E2” value is on record as 91 % E2.
The matching figures for `CCCCN1C(=O)[C@H](CC)N(S(=O)(=O)c2ccc(O)cc2)c2cc(F)ccc21` [Example 23, (3S)-1-Butyl-3-ethyl-6-fluoro-4-[(4-hydroxyphenyl)sulfonyl]-3,4-dihydroquinoxalin-2(1H)-one]: 6.50 and 106 % E2.
For `CCCCN1C(=O)[C@@H](CC)N(C(=O)c2ccc(O)cc2)c2cc(F)ccc21` [Example 12, (3R)-1-Butyl-3-ethyl-6-fluoro-4-(4-hydroxybenzoyl)-3,4-dihydroquinoxalin-2(1H)-one], in that order: 7.28 and 95 % E2.
For `C=CCN1C(=O)[C@@H](CC)N(C(=O)c2ccc(O)cc2)c2cc(F)ccc21` [Example 10, (3R)-1-Allyl-3-ethyl-6-fluoro-4-(4-hydroxybenzoyl)-3,4-dihydroquinoxalin-2(1H)-one], in that order: 7.24 and 95 % E2.
For the compound `CC[C@H]1C(=O)N(CC)c2cc(Br)ccc2N1S(=O)(=O)c1ccc(O)cc1` [Example 31, (3S)-7-Bromo-1,3-diethyl-4-[(4-hydroxyphenyl)sulfonyl]-3,4-dihydroquinoxalin-2(1H)-one], in test [1], the pIC50 is 5.80 and the “ER/IL-6 % E2” value is given as 71 % E2.
The matching figures for `CC[C@@H]1C(=O)N(C2CCCC2)c2ccc(F)cc2N1C(=O)c1ccc(O)cc1` [Example 17, (3R)-1-Cyclopentyl-3-ethyl-6-fluoro-4-(4-hydroxybenzoyl)-3,4-dihydroquinoxalin-2(1H)-one]: 6.35 and 96 % E2.
The matching figures for `CC[C@H]1C(=O)N(Cc2ccccc2)c2ccc(F)cc2N1S(=O)(=O)c1ccc(O)cc1` [Example 24, (3S)-1-benzyl-3-ethyl-6-fluoro-4-[(4-hydroxyphenyl)sulfonyl]-3,4-dihydroquinoxalin-2(1H)-one]: 6.27 and 40 % E2.
For `C=CCN1C(=O)[C@H](CC)N(S(=O)(=O)c2ccc(O)cc2)c2cc(F)ccc21` [Example 22, (3S)-1-Allyl-3-ethyl-6-fluoro-4-[(4-hydroxyphenyl)sulfonyl]-3,4-dihydroquinoxalin-2(1H)-one], in that order: 5.25 and 55 % E2.
Turning to `CC[C@H]1C(=O)N(CC)c2ccc(C)cc2N1S(=O)(=O)c1ccc(O)cc1` [Example 27, (3S)-1,3-diethyl-4-[(4-hydroxyphenyl)sulfonyl]-6-methyl-3,4-dihydroquinoxalin-2(1H)-one], in test [1], the pIC50 is 6.35 and the “ER/IL-6 % E2” value came to 63 % E2.
The matching figures for `CC[C@H]1C(=O)N(C)c2ccc(Br)cc2N1S(=O)(=O)c1ccc(O)cc1` [Example 34, (3S)-6-bromo-3-ethyl-4-[(4-hydroxyphenyl)sulfonyl]-1-methyl-3,4-dihydroquinoxalin-2(1H)-one]: 6.59 and 128 % E2.
For `CC[C@H]1C(=O)N(C)c2ccc(F)cc2N1C(=O)c1ccc(O)cc1` [Example 7, (3S)-3-Ethyl-6-fluoro-4-(4-hydroxybenzoyl)-1-methyl-3,4-dihydroquinoxalin-2(1H)-one], in that order: 6.52 and 44 % E2.
For `CC[C@@H]1C(=O)N(CC(C)C)c2ccc(F)cc2N1C(=O)c1ccc(O)cc1` [Example 14, (3R)-3-Ethyl-6-fluoro-4-(4-hydroxybenzoyl)-1-isobutyl-3,4-dihydroquinoxalin-2(1H)-one], in that order: 6.58 and 87 % E2.
Regarding `CC[C@H]1C(=O)N(C)c2cc(Br)ccc2N1S(=O)(=O)c1ccc(O)cc1` [Example 32, (3S)-7-bromo-3-ethyl-4-[(4-hydroxyphenyl)sulfonyl]-1-methyl-3,4-dihydroquinoxalin-2(1H)-one], in test [1], the pIC50 is 6.37 and the “ER/IL-6 % E2” value came out at 90 % E2.

Values taken from patent US7351709B2, “Estrogen receptor ligands” (Wyeth, priority 2004, dated 2008).
